Data on 30 compounds can be found in patent US11365188B2, “JAK inhibitors” (priority 2018, dated 2022).

Each structure is given as a SMILES string. Bounds are passed on as bounds.

The target in this test is JAK1 (Homo sapiens, UniProt P23458). As to the kind of experiment: JAK Kinase Assay (JAK1, Caliper EZ Reader, fluoresceinated peptide). Type of test: biochemical. The note with it: ATP 76.5 μM; JAK1 10 nM; 120 minutes at room temperature; read-out: JAK1 inhibition. As for the experimental part:
JAK Kinase Assay 384-well plates in the left foot butoxy measured progress. The final assay volume was 25 μL, 250 nL 100× compounds, 10 μL enzyme mix and 15 μL substrate mix (fluoresceinated peptide and ATP) in assay buffer (20 mM HEPES (pH 7.5), 10 mM MgCl2, […], 0.5 mM EGTA and 2 mM DTT) prepared as test compound. By mixing the JAK1 with substrates and test compounds to start the reaction. There action mixture was incubated for 120 minutes at room temperature, then added 30 μL stop buffer for each sample to terminate the reaction with 50 mM EDTA. After termination of the kinase reaction, the proportion of phosphorylated product was determined as a fraction of total peptide substrate using Caliper EZ Reader II. Inhibition data were calculated by comparison with 100% of the reaction mixture without enzyme inhibition and vehicle-only reaction mixture billion % inhibition compared. The final concentration of reagents in the assays is: ATP, 76.5 μM; JAK1 fluorescent peptide (5-FAM-EEPLYWSFPAKKK-CONH2), 3 μM; JAK1, 10 nM, and DMSO, 1%. Dose response curve were generated to determine the concentration required for IC50 of JAK activity.

Sequence of JAK1 (P23458 whole entry, species assumed): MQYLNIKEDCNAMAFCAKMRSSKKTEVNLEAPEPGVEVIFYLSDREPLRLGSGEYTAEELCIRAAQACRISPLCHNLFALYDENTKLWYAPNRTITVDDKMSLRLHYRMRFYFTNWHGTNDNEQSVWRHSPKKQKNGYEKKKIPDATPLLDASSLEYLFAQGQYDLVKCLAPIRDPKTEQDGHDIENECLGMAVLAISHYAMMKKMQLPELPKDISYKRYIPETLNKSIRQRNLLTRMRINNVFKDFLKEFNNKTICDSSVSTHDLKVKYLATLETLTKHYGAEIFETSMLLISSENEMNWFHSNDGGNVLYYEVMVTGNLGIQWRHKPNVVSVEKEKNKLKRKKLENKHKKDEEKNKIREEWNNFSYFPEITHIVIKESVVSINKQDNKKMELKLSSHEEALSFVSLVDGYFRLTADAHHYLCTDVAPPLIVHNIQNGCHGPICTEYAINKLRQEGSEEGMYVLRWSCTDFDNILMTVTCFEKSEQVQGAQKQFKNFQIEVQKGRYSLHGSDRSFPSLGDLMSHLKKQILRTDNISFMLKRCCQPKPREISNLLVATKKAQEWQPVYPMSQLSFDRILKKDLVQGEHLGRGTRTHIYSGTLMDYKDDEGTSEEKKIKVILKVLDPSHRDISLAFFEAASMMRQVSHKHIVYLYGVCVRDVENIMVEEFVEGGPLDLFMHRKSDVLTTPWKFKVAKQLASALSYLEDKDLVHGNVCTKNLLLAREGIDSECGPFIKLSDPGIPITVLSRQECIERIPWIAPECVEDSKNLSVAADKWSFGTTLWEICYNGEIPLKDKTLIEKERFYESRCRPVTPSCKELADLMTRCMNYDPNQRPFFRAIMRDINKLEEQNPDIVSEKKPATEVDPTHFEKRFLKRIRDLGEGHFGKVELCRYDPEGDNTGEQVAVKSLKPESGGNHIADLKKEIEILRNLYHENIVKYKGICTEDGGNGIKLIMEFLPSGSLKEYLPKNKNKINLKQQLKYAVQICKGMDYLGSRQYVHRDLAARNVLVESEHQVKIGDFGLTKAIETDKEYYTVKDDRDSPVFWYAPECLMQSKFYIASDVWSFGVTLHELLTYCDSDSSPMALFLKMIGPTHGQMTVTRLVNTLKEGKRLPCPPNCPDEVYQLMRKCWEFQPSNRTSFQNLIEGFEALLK

Regarding `CN(c1ncnc2[nH]ccc12)C1CC2(C1)CN(C(=O)c1cc(F)c(C#N)cc1F)C2` [Compound 51, 2,5-difluoro-4-(6-(methyl(7H-pyrrolo[2,3-d]pyrimidin-4-yl)amino)-2-azaspiro[3.3]heptane-2-carbonyl)benzonitrile], the IC50 fell in the range of 10 to 100 nM. `CN(c1ncnc2[nH]ccc12)C1CC2(C1)CN(C(=O)c1cc(F)c(C#N)c(F)c1)C2` [Compound 52, 2,6-difluoro-4-(6-(methyl(7H-pyrrolo[2,3-d]pyrimidin-4-yl)amino)-2-azaspiro[3.3]heptane-2-carbonyl)benzonitrile]: the IC50 lay within 10 to 100 nM. Take `Cc1cc(C(=O)N2CC3(CC(N(C)c4ncnc5[nH]ccc45)C3)C2)c(F)cc1C#N` [Compound 54, 5-fluoro-2-methyl-4-(6-(methyl(7H-pyrrolo[2,3-d]pyrimidin-4-yl)amino)-2-azaspiro[3.3]heptane-2-carbonyl)benzonitrile]: the IC50 lay in the range of 10 to 100 nM.

On to `CN(c1ncnc2[nH]ccc12)C1CC2(C1)CN(C(=O)c1cccc(F)c1F)C2` [Compound 55, (2,3-difluorophenyl)(6-(methyl(7H-pyrrolo[2,3-d]pyrimidin-4-yl)amino)-2-azaspiro[3.3]heptan-2-yl)methanone], for which the IC50 was 10 to 100 nM. As for `CN(c1ncnc2[nH]ccc12)C1CC2(C1)CN(C(=O)c1c(F)cc(C#N)cc1F)C2` [Compound 56, 3,5-difluoro-4-(6-(methyl(7H-pyrrolo[2,3-d]pyrimidin-4-yl)amino)-2-azaspiro[3.3]heptane-2-carbonyl)benzonitrile], the IC50 is no more than 10 nM. On to `CN(c1ncnc2[nH]ccc12)C1CC2(C1)CN(C(=O)c1ccc(F)c(C#N)c1)C2` [Compound 57, 2-Fluoro-5-{6-[methyl-(7H-pyrrolo[2,3-d]pyrimidin-4-yl)-amino]-2-aza-spiro[3.3]heptane-2-carbonyl}-benzonitrile], for which the IC50 is no more than 10 nM.

In the case of `CN(c1ncnc2[nH]ccc12)C1CC2(C1)CN(C(=O)c1cc(F)cc(C#N)c1)C2` [Compound 58, 3-Fluoro-5-{6-[methyl-(7H-pyrrolo[2,3-d]pyrimidin-4-yl)-amino]-2-aza-spiro[3.3]heptane-2-carbonyl}-benzonitrile], the IC50 was no more than 10 nM. As to `CN(c1ncnc2[nH]ccc12)C1CC2(C1)CN(C(=O)c1ccc(C#N)c(Cl)c1Cl)C2` [Compound 60, 2,3-Dichloro-4-{6-[methyl-(7H-pyrrolo[2,3-d]pyrimidin-4-yl)-amino]-2-aza-spiro[3.3]heptane-2-carbonyl}-benzonitrile], the IC50 is no more than 10 nM. Turning to `CN(c1ncnc2[nH]ccc12)C1CC2(C1)CN(C(=O)c1ccc(F)c(C#N)c1F)C2` [Compound 61, 2,6-Difluoro-3-{6-[methyl-(7H-pyrrolo[2,3-d]pyrimidin-4-yl)-amino]-2-aza-spiro[3.3]heptane-2-carbonyl}-benzonitrile], the IC50 is no more than 10 nM. As to `CN(c1ncnc2[nH]ccc12)C1CC2(C1)CN(C(=O)c1cc(F)c(F)c(C#N)c1)C2` [Compound 62, 2,3-Difluoro-5-{6-[methyl-(7H-pyrrolo[2,3-d]pyrimidin-4-yl)-amino]-2-aza-spiro[3.3]heptane-2-carbonyl}-benzonitrile], the IC50 lay in the range of 10 to 100 nM. For the compound `CN(c1ncnc2[nH]ccc12)C1CC2(C1)CN(C(=O)c1cc(C#N)cc(F)c1F)C2` [Compound 63, 3,4-Difluoro-5-{6-[methyl-(7H-pyrrolo[2,3-d]pyrimidin-4-yl)-amino]-2-aza-spiro[3.3]heptane-2-carbonyl}-benzonitrile], the IC50 was no more than 10 nM. As for `[2H]C([2H])([2H])N(c1ncnc2[nH]ccc12)C1CC2(C1)CN(C(=O)c1ccc(C#C)c(F)c1)C2` [Compound 64, (4-Ethynyl-3-fluoro-phenyl)-{6-[(methyl-d3)-(7H-pyrrolo[2,3-d]pyrimidin-4-yl)-amino]-2-aza-spiro[3.3]hept-2-yl}-methanone], the IC50 is no more than 10 nM. Consider `[2H]C([2H])([2H])N(c1ncnc2[nH]ccc12)C1CC2(C1)CN(C(=O)c1ccc(C#N)c(F)c1)C2` [Compound 65], for which the IC50 was in the range of 10 to 100 nM. Turning to `[2H]C([2H])([2H])N(c1ncnc2[nH]ccc12)C1CC2(C1)CN(C(=O)c1ccc(C#CC)c(F)c1)C2` [Compound 66], the IC50 is no more than 10 nM.

`[2H]C([2H])([2H])N(c1ncnc2[nH]ccc12)C1CC2(C1)CN(C(=O)c1ccc(C#N)c(F)c1F)C2` [Compound 67, 2,3-Difluoro-4-{6-[(methyl-d3)-(7H-pyrrolo[2,3-d]pyrimidin-4-yl)-amino]-2-aza-spiro[3.3]heptane-2-carbonyl}-benzonitrile]: the IC50 is no more than 10 nM. For `COc1nsc(NC(=O)N2CC3(CC(N(C)c4ncnc5[nH]ccc45)C3)C2)n1` [Compound 70, N-(3-methoxy-1,2,4-thiadiazol-5-yl)-6-(methyl(7H-pyrrolo[2,3-d]pyrimidin-4-yl)amino)-2-azaspiro[3.3]heptane-2-carboxamide], the IC50 is no more than 10 nM. As to `CN(c1ncnc2[nH]ccc12)C1CC2(C1)CN(C(=O)c1ccc(S(N)(=O)=O)cc1)C2` [Compound 71, 4-(6-(methyl(7H-pyrrolo[2,3-d]pyrimidin-4-yl)amino)-2-azaspiro[3.3]heptane-2-carbonyl)benzenesulfonamide], the IC50 is no more than 10 nM. In the case of `COCC(=O)N1CCC2(CCC(N(C)c3ncnc4[nH]ccc34)CC2)CC1` [Compound 72, 2-methoxy-1-(9-(methyl(7H-pyrrolo[2,3-d]pyrimidin-4-yl)amino)-3-azaspiro[5.5]undecan-3-yl)ethan-1-one], the IC50 was in the range of 10 to 100 nM.

Take `COc1nsc(NC(=O)N2CCC3(CCC(N(C)c4ncnc5[nH]ccc45)CC3)CC2)n1` [Compound 74, N-(3-methoxy-1,2,4-thiadiazol-5-yl)-9-(methyl(7H-pyrrolo[2,3-d]pyrimidin-4-yl)amino)-3-azaspiro[5.5]undecane-3-carboxamide]: the IC50 was no more than 10 nM.

In the case of `CN(c1ncnc2[nH]ccc12)C1CCC2(CC1)CCN(C(=O)OC(C)(C)C)CC2` [Compound 106, tert-butyl 9-(methyl(7H-pyrrolo[2,3-d]pyrimidin-4-yl)amino)-3-azaspiro[5.5]undecane-3-carboxylate], the IC50 lay within 1000 to 10000 nM. Regarding `CN(c1ncnc2[nH]ccc12)C1CCC2(CC1)CCN(C(=O)COc1ccccc1)CC2` [Compound 107, 1-(9-(methyl(7H-pyrrolo[2,3-d]pyrimidin-4-yl)amino)-3-azaspiro[5.5]undecan-3-yl)-2-phenoxyethan-1-one], the IC50 is no more than 10 nM. Take `CN(c1ncnc2[nH]ccc12)C1CCC2(CC1)CCN(C(=O)OCC(F)(F)F)CC2` [Compound 108, 2,2,2-trifluoroethyl 9-(methyl(7H-pyrrolo[2,3-d]pyrimidin-4-yl)amino)-3-azaspiro[5.5]undecane-3-carboxylate]: the IC50 lay in the range of 100 to 1000 nM.

Turning to `CN(c1ncnc2[nH]ccc12)C1CCC2(CC1)CCN(C(=O)NCC(F)(F)F)CC2` [Compound 109, 9-(methyl(7H-pyrrolo[2,3-d]pyrimidin-4-yl)amino)-N-(2,2,2-trifluoroethyl)-3-azaspiro[5.5]undecane-3-carboxamide], the IC50 is 10 to 100 nM. Turning to `CNC(=O)N1CCC2(CCC(N(C)c3ncnc4[nH]ccc34)CC2)CC1` [Compound 110, N-methyl-9-(methyl(7H-pyrrolo[2,3-d]pyrimidin-4-yl)amino)-3-azaspiro[5.5]undecane-3-carboxamide], the IC50 is 10 to 100 nM.

As for `CCN(CC)S(=O)(=O)N1CCC2(CCC(N(C)c3ncnc4[nH]ccc34)CC2)CC1` [Compound 111, N,N-diethyl-9-(methyl(7H-pyrrolo[2,3-d]pyrimidin-4-yl)amino)-3-azaspiro[5.5]undecane-3-sulfonamide], the IC50 was no less than 10000 nM. As for `CN(c1ncnc2[nH]ccc12)C1CCC2(CC1)CCN(C(=O)c1ccc(S(N)(=O)=O)cc1)CC2` [Compound 112, 4-(9-(methyl(7H-pyrrolo[2,3-d]pyrimidin-4-yl)amino)-3-azaspiro[5.5]undecane-3-carbonyl)benzenesulfonamide], the IC50 was in the range of 10 to 100 nM. With `CN(c1ncnc2[nH]ccc12)C1CCC2(CC1)CCN(C(=O)CCS(N)(=O)=O)CC2` [Compound 113, 3-(9-(methyl(7H-pyrrolo[2,3-d]pyrimidin-4-yl)amino)-3-azaspiro[5.5]undecan-3-yl)-3-oxopropane-1-sulfonamide] the figure was 1000 to 10000 nM. In the case of `CN(c1ncnc2[nH]ccc12)C1CCC2(CC1)CCN(C(=O)COc1cc(F)cc(C#N)c1)CC2` [Compound 114, 3-fluoro-5-(2-(9-(methyl(7H-pyrrolo[2,3-d]pyrimidin-4-yl)amino)-3-azaspiro[5.5]undecan-3-yl)-2-oxoethoxy)benzonitrile], the IC50 is no more than 10 nM. For the compound `CN(c1ncnc2[nH]ccc12)C1CCC2(CC1)CCN(C(=O)COc1ccc(C#N)cc1)CC2` [Compound 115, 4-(2-(9-(methyl(7H-pyrrolo[2,3-d]pyrimidin-4-yl)amino)-3-azaspiro[5.5]undecan-3-yl)-2-oxoethoxy)benzonitrile], the IC50 is no more than 10 nM. As to `CN(c1ncnc2[nH]ccc12)C1CCC2(CC1)CCN(C(=O)COc1cccc(C#N)c1)CC2` [Compound 116, 3-(2-(9-(methyl(7H-pyrrolo[2,3-d]pyrimidin-4-yl)amino)-3-azaspiro[5.5]undecan-3-yl)-2-oxoethoxy)benzonitrile], the IC50 lay in the range of 10 to 100 nM.
